The source of these data is US20240132525A1, “BORON […], CO[…], METHODS AND USES THEREOF” (priority 2022, published 2024).

Series [1] deals with JAK2 (Homo sapiens (Human), UniProt O60674). Put plainly: Biochemical kinase assay (33P-ATP filter-binding), JAK2. As to conditions: read-out: IC50 JAK2. The source says: (§1) Biochemical Kinase Assay Protocol (JAK)
(§2) Reaction Procedure: • 1. […] Detected kinase activity by filter-binding method.

Series [2] is described as follows: Dog LM (liver microsome) assay. Particulars: predicted clearance as percent of liver blood flow. It counts as in vitro ADME. A digest of the protocol:
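Pooled Beagle liver microsomes (1 mg/ml protein), compound 1 μM, Tris pH 7.6 with 5 mM MgCl2, 37 °C, started with 1 mM NADPH; parent loss by LC-MS/MS over several time points.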

The subject of series [3] is IL-4/pSTAT6. The experiment in a line: Cytokine function assay IL-4/pSTAT6 in PBMC. It counts as cell-based. As for the experimental part:
(§3) Cytokine Function Assay Protocols for IL-4/pSTAT6 and GM-CSF/pSTAT5
IL-4/pSTAT6: • PBMC from a healthy donor was plated onto a 96 w plate. Compound was added and incubated for 1 hour (at 37° C.). After 1 hour, cells were stimulated with IL-4 for 15 minutes. Cells were fixed and stained with anti-pSTAT6 antibody. After staining, cells were read on a Beckman-Coulter CytoFLEX.

Series [4] concerns the target JAK1 (Homo sapiens (Human), UniProt P23458). The experiment in a line: Biochemical kinase assay (33P-ATP filter-binding), JAK1. Particulars: read-out: IC50 JAK1.
From the text: as §1, §2

The test system of series [5] is IL-31. The experiment in a line: Cytokine function assay for IL-31 in DH82 cells. As to conditions: Canis lupus familiaris. It counts as cell-based, canine. As for the experimental part:
Cytokine Function Assay Protocol for IL-31
The protocol for the cytokine function assay for IL-31 is set forth below: • 1. […] After 24 hr, wash with 37° C. pre-warmed PBS (100 uL/well). • 3. Add serum-free MEM, 90 uL per well, 2 hr, 37° C. • 4. Add 10 uL 10×IL-31 (40, 10, 2.5 ug/mL) in duplicate, 5 min, 37° C. • 5. Remove medium, add 60 uL lysis buffer per well. Agitate on a plate shaker (˜350 rpm) for 10 min at RT. • 6. […] Add 6 uL Acceptor Mix, cover with aluminum foil, quickly spin at 1000 rpm, shake at 120 rpm for 2 min, then incubate at RT for 1 hr. • 8. Add 6 uL Donor Mix, cover with aluminum foil, quickly spin at 1000 rpm, shake at 120 rpm for 2 min, then incubate at RT for 1 hr. • 9. Measure the fluorescence using EnVision™ plate reader.

Series [6] concerns GM-CSF/pSTAT5. Put plainly: Cytokine function assay GM-CSF/pSTAT5 in lysed whole blood cells. It counts as cell-based. As to conditions: read-out: IC50 GM-CSF. As for the experimental part: as §3
GM-CSF/pSTAT5: • Whole blood from a healthy donor was lysed to remove red blood cells. Cells were plated onto a 96 well plate. Compound was added and incubated for 1 hour (at 37° C.). After 1 hour, cells were stimulated with GM-CSF for 15 minutes. Cells were fixed and stained with anti-pSTAT5 antibody. After staining, cells were read on a Beckman-Coulter CytoFLEX.

For series [7], the target named is PDE4B (Homo sapiens (Human), UniProt Q07343). The experiment in a line: PDE4B inhibition. It counts as biochemical. Particulars: Table 3b, comparator compounds.
[8] abbreviates: Table 3a, 1 μM, 1 mg/ml microsomal protein.
Setting [9] is: PBMC, read-out: IC50 IL-4, Table 3a.
[10] abbreviates: DH82, Table 3a, read-out: IC50 IL-31.
The mark [11] stands for this setting: Table 3b, comparator compounds, read-out: IC50 IL-4.

For orientation: IC50 means the concentration that gives 50% inhibition.

Read-outs that look alike come from different tables or passages of the source.

Sequence of JAK1 (P23458 whole entry, species assumed): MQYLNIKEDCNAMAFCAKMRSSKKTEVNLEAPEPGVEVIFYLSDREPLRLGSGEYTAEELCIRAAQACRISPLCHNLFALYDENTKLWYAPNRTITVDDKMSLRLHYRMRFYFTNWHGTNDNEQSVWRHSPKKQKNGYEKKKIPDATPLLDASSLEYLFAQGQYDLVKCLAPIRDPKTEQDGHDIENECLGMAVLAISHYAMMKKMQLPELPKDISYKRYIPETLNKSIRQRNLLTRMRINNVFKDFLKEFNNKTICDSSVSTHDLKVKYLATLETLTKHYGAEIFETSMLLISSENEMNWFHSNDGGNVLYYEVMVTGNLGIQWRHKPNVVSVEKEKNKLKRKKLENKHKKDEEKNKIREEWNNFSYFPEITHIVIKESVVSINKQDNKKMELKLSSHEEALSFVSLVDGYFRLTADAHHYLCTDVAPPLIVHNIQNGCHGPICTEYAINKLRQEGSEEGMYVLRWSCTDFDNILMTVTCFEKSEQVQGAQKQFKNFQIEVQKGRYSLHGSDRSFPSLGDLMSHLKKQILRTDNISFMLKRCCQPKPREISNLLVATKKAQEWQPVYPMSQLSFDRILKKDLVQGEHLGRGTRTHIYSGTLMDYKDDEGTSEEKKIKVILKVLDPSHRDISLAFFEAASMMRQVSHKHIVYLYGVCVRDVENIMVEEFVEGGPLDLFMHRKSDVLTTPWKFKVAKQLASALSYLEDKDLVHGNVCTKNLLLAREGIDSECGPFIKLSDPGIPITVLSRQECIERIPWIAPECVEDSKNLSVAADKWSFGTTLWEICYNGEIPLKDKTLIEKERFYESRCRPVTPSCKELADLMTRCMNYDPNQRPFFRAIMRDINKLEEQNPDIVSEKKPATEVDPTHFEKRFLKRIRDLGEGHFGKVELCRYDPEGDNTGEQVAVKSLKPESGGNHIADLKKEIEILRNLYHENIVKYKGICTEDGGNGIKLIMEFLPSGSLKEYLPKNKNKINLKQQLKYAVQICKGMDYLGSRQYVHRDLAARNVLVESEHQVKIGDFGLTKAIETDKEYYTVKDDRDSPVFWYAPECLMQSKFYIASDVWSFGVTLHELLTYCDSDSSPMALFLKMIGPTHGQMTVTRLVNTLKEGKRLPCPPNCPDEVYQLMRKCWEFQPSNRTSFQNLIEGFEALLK
Sequence of PDE4B (Q07343 whole entry, species assumed): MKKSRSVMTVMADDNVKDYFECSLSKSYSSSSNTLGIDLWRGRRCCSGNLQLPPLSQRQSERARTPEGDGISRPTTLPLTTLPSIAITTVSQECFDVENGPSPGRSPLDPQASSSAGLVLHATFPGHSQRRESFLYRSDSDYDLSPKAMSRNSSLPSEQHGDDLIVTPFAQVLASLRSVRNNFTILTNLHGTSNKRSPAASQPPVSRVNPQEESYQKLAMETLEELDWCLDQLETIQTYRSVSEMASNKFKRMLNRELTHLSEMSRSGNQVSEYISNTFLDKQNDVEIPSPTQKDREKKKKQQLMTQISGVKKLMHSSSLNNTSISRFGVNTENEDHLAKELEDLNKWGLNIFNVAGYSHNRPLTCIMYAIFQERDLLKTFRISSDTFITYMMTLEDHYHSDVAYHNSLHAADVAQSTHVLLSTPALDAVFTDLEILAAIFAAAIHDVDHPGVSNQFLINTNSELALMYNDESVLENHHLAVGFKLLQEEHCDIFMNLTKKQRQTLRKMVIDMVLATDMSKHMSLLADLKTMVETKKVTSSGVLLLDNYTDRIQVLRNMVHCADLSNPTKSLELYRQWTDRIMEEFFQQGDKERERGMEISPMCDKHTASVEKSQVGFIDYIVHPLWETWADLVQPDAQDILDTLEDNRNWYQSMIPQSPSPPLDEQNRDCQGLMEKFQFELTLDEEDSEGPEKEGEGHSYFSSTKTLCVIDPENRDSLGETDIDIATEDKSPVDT
Sequence of JAK2 (O60674 whole entry, species assumed): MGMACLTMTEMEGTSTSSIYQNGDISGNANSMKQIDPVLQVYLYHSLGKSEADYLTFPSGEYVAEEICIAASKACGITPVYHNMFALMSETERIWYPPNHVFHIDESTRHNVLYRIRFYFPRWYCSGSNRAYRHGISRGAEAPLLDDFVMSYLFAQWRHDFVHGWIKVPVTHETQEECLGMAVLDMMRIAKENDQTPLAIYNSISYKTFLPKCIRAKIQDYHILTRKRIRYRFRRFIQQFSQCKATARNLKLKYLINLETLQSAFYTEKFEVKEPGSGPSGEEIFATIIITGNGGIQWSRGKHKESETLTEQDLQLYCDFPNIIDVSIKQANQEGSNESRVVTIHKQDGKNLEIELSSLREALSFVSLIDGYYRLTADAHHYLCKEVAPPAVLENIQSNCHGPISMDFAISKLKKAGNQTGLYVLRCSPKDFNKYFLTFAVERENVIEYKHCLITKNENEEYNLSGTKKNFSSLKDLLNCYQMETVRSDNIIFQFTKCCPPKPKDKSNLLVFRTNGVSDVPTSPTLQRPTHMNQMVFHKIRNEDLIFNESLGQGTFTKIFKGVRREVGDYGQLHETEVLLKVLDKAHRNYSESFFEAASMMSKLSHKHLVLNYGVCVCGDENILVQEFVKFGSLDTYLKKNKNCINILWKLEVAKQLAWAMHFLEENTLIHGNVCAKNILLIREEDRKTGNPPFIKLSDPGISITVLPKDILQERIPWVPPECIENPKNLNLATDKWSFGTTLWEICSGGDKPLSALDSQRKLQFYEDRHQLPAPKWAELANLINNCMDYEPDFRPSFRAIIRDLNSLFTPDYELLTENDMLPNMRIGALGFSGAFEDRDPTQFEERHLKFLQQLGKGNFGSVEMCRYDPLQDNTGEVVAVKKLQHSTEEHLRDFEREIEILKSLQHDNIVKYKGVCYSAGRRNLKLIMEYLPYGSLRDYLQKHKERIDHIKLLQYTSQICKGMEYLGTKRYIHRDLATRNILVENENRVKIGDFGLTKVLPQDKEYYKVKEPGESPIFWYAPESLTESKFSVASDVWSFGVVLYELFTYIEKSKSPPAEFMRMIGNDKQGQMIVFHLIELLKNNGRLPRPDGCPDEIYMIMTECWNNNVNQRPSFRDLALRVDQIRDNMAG

In the case of `Cc1cnc(Nc2cc(Cl)c3c(c2)COB3O)nc1NC1CCCCC1C#N` (racemic) [Example 010, (trans)-2-[[2-[(7-chloro-1-hydroxy-1,3dihydrobenzo[c][1,2]oxaboroll-5-yl)amino]-5-methyl-pyrimidin-4-yl]amino]cyclohexane-1-carbonitrile], the half-maximal inhibitory concentration (IC50) was determined as 19.3 nM in series [1] (Table 3a); 71.7 nM in series [3] (setting [9]); 0.7 nM in series [4] (Table 3a); 18.1 nM in series [5] (setting [10]); 1020 nM in series [6] (Whole blood cell). In addition, the “Dog LM QH” value in series [2] (setting [8]) was less than 19.9%.
For `Cc1cnc(Nc2cc(Cl)c3c(c2)COB3O)nc1N[C@H]1CCCOC1` [Example 030b, (S)-7-chloro-5-((5-methyl-4-((tetrahydro-2H-pyran-3-yl)amino)pyrimidin-2-yl)amino)benzo[c][1,2]oxaborol-1(3H)-ol], the IC50 in series [1] (Table 3a) was determined as 91.9 nM; in series [3] (setting [9]) it was 193 nM; in series [4] (Table 3a), 4.7 nM; in series [5] (DH82, read-out: IC50 IL-31), 25.8 nM; in series [6] (Whole blood cell) it was 4480 nM. In series [2] (setting [8]), the “Dog LM QH” value is recorded as less than 19.9%.
Consider `Cc1cnc(Nc2cc(Cl)c3c(c2)COB3O)nc1NC1CCCC1C#N` (racemic) [Example 003, (trans)-2-((2-((7-chloro-1-hydroxy-1,3-dihydrobenzo[c][1,2]oxaborol-5-yl)amino)-5-methylpyrimidin-4-yl)amino)cyclopentane-1-carbonitrile], for which the IC50 turned out to be 40 nM in series [1] (Table 3a); 106 nM in series [3] (setting [9]); 0.7 nM in series [4] (Table 3a); 21.2 nM in series [5] (setting [10]); 1430 nM in series [6] (Whole blood cell). The “Dog LM QH” value in series [2] (setting [8]) is on record as less than 19.9%.
Regarding `Cc1cnc(Nc2ccc3c(c2)COB3O)nc1NC1CCCC1` [Example C006], the IC50 stood at 154 nM in series [1] (Table 3b, comparator compounds); 293 nM in series [3] (setting [11]); 114 nM in series [7]; 6.5 nM in series [4] (Table 3b, comparator compounds); 270 nM in series [6] (Table 3b, comparator compounds). In series [2] (Table 3b, comparator compounds), the “Dog LM QH” value is greater than 86.6%. Besides, in series [7], the “Inhibition PDE4B @ 1 μM” value amounted to 86%.
With `Cc1cnc(Nc2cc(Cl)c3c(c2)COB3O)nc1NC1COCCC1C#N` (racemic) [Example 031, (trans)-3-((2-((7-chloro-1-hydroxy-1,3-dihydrobenzo[c][1,2]oxaborol-5-yl)amino)-5-methylpyrimidin-4-yl)amino)tetrahydro-2H-pyran-4-carbonitrile], the IC50 in series [1] (Table 3a) was 40.8 nM; in series [3] (setting [9]) it was 67.5 nM; in series [4] (Table 3a), 1.2 nM; in series [5] (setting [10]), 27.6 nM; in series [6] (Whole blood cell), 3150 nM. The “Dog LM QH” value in series [2] (setting [8]) was less than 19.9%.
On to `Cc1cnc(Nc2cc(C)c3c(c2)COB3O)nc1NC1CCCC1` [Example C008], for which the half-maximal inhibitory concentration (IC50) in series [1] (Table 3b, comparator compounds) is 59.3 nM; in series [3] (setting [11]), 973 nM; in series [4] (Table 3b, comparator compounds) it was 2.3 nM; in series [6] (Table 3b, comparator compounds) it was greater than 10000 nM. Moreover, the “Dog LM QH” value in series [2] (Table 3b, comparator compounds) is 54.3%. Moreover, in series [7], the “Inhibition PDE4B @ 1 μM” value is listed as 37%.
Turning to `Cc1cnc(Nc2ccc3c(c2)COB3O)nc1NC1CCCCC1` [Example C011], the IC50 in series [1] (Table 3b, comparator compounds) turned out to be 32.9 nM; in series [3] (setting [11]), 2490 nM; in series [7], 242 nM; in series [4] (Table 3b, comparator compounds), 3.2 nM; in series [6] (Table 3b, comparator compounds), 7700 nM. The “Dog LM QH” value in series [2] (Table 3b, comparator compounds) is listed as 83.5%. The “Inhibition PDE4B @ 1 μM” value in series [7] was 13%.
`Cc1cnc(Nc2cc(Cl)c3c(c2)COB3O)nc1N[C@@H]1CCC[C@H]1C#N` (single isomer, unassigned) [Example 003a, (trans)-2-((2-((7-chloro-1-hydroxy-1,3-dihydrobenzo[c][1,2]oxaborol-5-yl)amino)-5-methylpyrimidin-4-yl)amino)cyclopentane-1-carbonitrile]: the IC50 in series [1] (Table 3a) is 3.7 nM; in series [3] (setting [9]), 93.3 nM; in series [4] (Table 3a) it was 0.7 nM; in series [5] (setting [10]) it was 9.2 nM; in series [6] (Whole blood cell), 2220 nM. The “Dog LM QH” value in series [2] (setting [8]) is less than 19.9%.
With `Cc1cnc(Nc2ccc3c(c2)C(C)(C)OB3O)nc1NC1CCCC1` [Example C009], the IC50 in series [1] (Table 3b, comparator compounds) was found to be 83.9 nM; in series [3] (setting [11]), 218 nM; in series [7] it was 761 nM; in series [4] (Table 3b, comparator compounds), 2.4 nM; in series [6] (Table 3b, comparator compounds), 4220 nM. In addition, the “Dog LM QH” value in series [2] (Table 3b, comparator compounds) is recorded as 83.4%. Also, the “Inhibition PDE4B @ 1 μM” value in series [7] is 40%.
For `Cc1cnc(Nc2cc(C)c3c(c2)COB3O)nc1N[C@@H]1COCC[C@H]1C#N` (relative stereo) [Example 027, (trans)-3-((2-((1-hydroxy-7-methyl-1,3-dihydrobenzo[c][1,2]oxaborol-5-yl)amino)-5-methylpyrimidin-4-yl)amino)tetrahydro-2H-pyran-4-carbonitrile], the IC50 in series [1] (Table 3a) was found to be 3.5 nM; in series [3] (setting [9]), 79.9 nM; in series [4] (Table 3a), 0.6 nM; in series [5] (setting [10]), 81.3 nM; in series [6] (Whole blood cell), 1200 nM. For the same molecule, in series [2] (setting [8]), the “Dog LM QH” value is given as 30.1%.
Take `Cc1cnc(Nc2cc(Cl)c3c(c2)COB3O)nc1NC1CCCC[C@@H]1C#N` (single isomer, unassigned) [Example 010a, (trans)-2-[[2-[(7-chloro-1-hydroxy-3H-2,1-benzoxaborol-5-yl)amino]-5-methyl-pyrimidin-4-yl]amino]cyclohexane-1-carbonitrile]: the IC50 is 4 nM in series [1] (Table 3a); 37.9 nM in series [3] (setting [9]); 0.6 nM in series [4] (Table 3a); 12.7 nM in series [5] (setting [10]); 469 nM in series [6] (Whole blood cell). The “Dog LM QH” value in series [2] (setting [8]) is given as less than 19.9%.
For `Cc1cnc(Nc2ccc3c(c2)COB3O)nc1N[C@@H]1CCCC[C@H]1C#N` (relative stereo) [Example 008, (trans)2-[[2-[(1-hydroxy-3H-2,1-benzoxaborol-5-yl)amino]-5-methyl-pyrimidin-4-yl]amino]cyclohexane-1-carbonitrile], the 50% inhibitory concentration (IC50) in series [1] (Table 3a) amounted to 3.4 nM; in series [3] (setting [9]), 95.9 nM; in series [4] (Table 3a) it was 0.3 nM; in series [5] (setting [10]) it was 40.2 nM; in series [6] (Whole blood cell) it was 774 nM. The “Dog LM QH” value in series [2] (setting [8]) was less than 19.9%.
Turning to `OB1OCc2cc(Nc3ncc(Cl)c(NC4CCCC4)n3)ccc21` [Example C014], the IC50 in series [1] (Table 3b, comparator compounds) was 179 nM; in series [3] (setting [11]), 782 nM; in series [7] it was 52.7 nM; in series [4] (Table 3b, comparator compounds), 3.3 nM; in series [6] (Table 3b, comparator compounds), 5350 nM. The “Dog LM QH” value in series [2] (Table 3b, comparator compounds) is reported as 78.5%.
Consider `CCC(CC)Nc1nc(Nc2cc(F)c3c(c2)COB3O)ncc1C` [Example C003], for which the IC50 in series [1] (Table 3b, comparator compounds) is 43.7 nM; in series [3] (setting [11]) it was 125 nM; in series [7], 212 nM; in series [4] (Table 3b, comparator compounds) it was 0.7 nM; in series [6] (Table 3b, comparator compounds) it was 1160 nM. Also, the “Dog LM QH” value in series [2] (Table 3b, comparator compounds) is 41.0%.
In the case of `Cc1cc(Nc2ncc(Cl)c(NC3CCCC3)n2)cc2c1B(O)OC2` [Example C016], the IC50 in series [1] (Table 3b, comparator compounds) was 663 nM; in series [3] (setting [11]), 688 nM; in series [4] (Table 3b, comparator compounds) it was 2.1 nM; in series [6] (Table 3b, comparator compounds), 927 nM. Further, the “Dog LM QH” value in series [2] (Table 3b, comparator compounds) is given as 54.5%. Moreover, in series [7], the “Inhibition PDE4B @ 1 μM” value came to 30%.
Consider `CCC(CC)Nc1nc(Nc2ccc3c(c2)COB3O)ncc1C` [Example C001], for which the IC50 stood at 60.2 nM in series [1] (Table 3b, comparator compounds); 115 nM in series [3] (setting [11]); 92.2 nM in series [7]; 1.6 nM in series [4] (Table 3b, comparator compounds); 1720 nM in series [6] (Table 3b, comparator compounds). Also, in series [2] (Table 3b, comparator compounds), the “Dog LM QH” value was 73.8%. Moreover, in series [7], the “Inhibition PDE4B @ 1 μM” value is listed as 90%.
In the case of `CCC(CC)Nc1nc(Nc2cc(C)c3c(c2)COB3O)ncc1C` [Example C004], the IC50 in series [1] (Table 3b, comparator compounds) is 41 nM; in series [3] (setting [11]), 118 nM; in series [4] (Table 3b, comparator compounds), 1.1 nM; in series [6] (Table 3b, comparator compounds), greater than 10000 nM. In series [2] (Table 3b, comparator compounds), the “Dog LM QH” value is 34.5%. The “Inhibition PDE4B @ 1 μM” value in series [7] came to 22%.
